# Laboratory results: patent EP2792683A1, “Compounds potentiating the activity of antifungal drugs” (Fundacion MEDINA. Centro de Excelencia en Investigacion de …, priority 2013, dated 2014)
# Tested on: C. albicans
# Assay: Cell viability by membrane integrity, propidium iodide (PI) flow cytometry
# Format: cell-based
# Description: • Figure 1. Checkerboard assay showing the potentiation of the antifungal caspofungin by the compound MDN-0018. In this assay, dose response curves of the compound MDN-0018 (8 to 0.015 µg/mL) are performed from left to right and dose response curves of caspofungin (0.24 to 0.018 µg/mL) are performed from top to bottom. Other known antifungal compounds (echinocandins, azoles and polyenes) were tested, obtaining a similar checkboard. […] Determination of the potentiation of caspofungin activity by the compound MDN-0018 against A. fumigatus. Study of the optimum concentration of the compounds MDN-0018 and caspofungin where maximum enhancement of caspofungin is reached is shown in Figure 2.1. In addition, the graphic representation of curves, in duplicate, of the caspofungin potentiated by the compound MDN-0018 is shown in Figure 2.1. Each curve represents a curve of caspofungin from 0.24 to 0.018 µg/mL ([…]) with set concentrations of the MDN-0018 compound from 8 to 0.015 µg/mL (8.86 to 0.017 µM). • Figure 3. Flow cytometry experiments to determine cellular viability by changes in membrane permeability using propidium iodide (PI) as probe. […]
# Cell viability was determined by changes in membrane permeability, live cells with intact membranes are distinguished by their ability to exclude dyes that easily penetrate dead or damaged cells. […]
smiles,measurement,setting,value
CC[C@H](C)C[C@H](C)CCCCCCCCC(=O)N[C@H]1C[C@@H](O)[C@@H](NCCN)NC(=O)[C@@H]2[C@@H](O)CCN2C(=O)[C@H]([C@H](O)CCN)NC(=O)[C@H]([C@H](O)[C@@H](O)c2ccc(O)cc2)NC(=O)[C@@H]2C[C@@H](O)CN2C(=O)[C@H]([C@@H](C)O)NC1=O [caspofungin],"cellular viability by changes in membrane permeability (PI), flow cytometry profile",1 µg/mL of caspofungin,damaged population
same,"cellular viability by changes in membrane permeability (PI), flow cytometry profile",sublethal dose of caspofungin (0.015 µg/mL),same profile as the non treated cells
